Data published in patent publication US20150051387A1, “WATER SOLUBLE PLATINUM COMPLEXES FOR TUMOR TREATMENT AND PROCESS OF PREPARING SAME” (GUDUI BIOPHARMA TECHNOLOGY INC., priority 2011, published 2015).

Experiments:
[1] = tested on: L1210 tumor cells; assay: Antitumor efficacy in L1210 leukemia-bearing CDF1 mice (Experiment-2); type: in vivo; details: for Weight Changes: first day to seventh day
Protocol: In the following test, antitumor efficacy studies were performed using 8-9 weeks old female CDF1 mice, the average weight of the animal is 20-25 grams. L1210 tumor cells (about 10^5 cells per mouse) were inoculated intraperitoneally. The water-soluble platinum complexes were used to treat the tumor-bearing animals and the efficacy was compared compared with the clinical platinum antitumor drugs. […] Drugs were administered intraperitoneally on day 1 and day 4 after tumor cell transplantation. The number of experimental animals in each group was 6.
The experimental animals were purchased from Vital River Laboratory Animal Technology Co. Ltd., Tumor cells L1210-leukemia cells were purchased from Shanghai An Yan Commercial Trade Co. Ltd.
The increase in life span (ILS) is calculated as follows:
Wherein, St=the weighted median survival time of treated animals; Su=the weighted median survival time of untreated animals

[2] = Solubility in water at room temperature (Experiment-1)
[3] = 1.25 mg/Kg i.p. day 1 and day 4

N.N.O=C([O-])C1(C(=O)[O-])CCC1.[Pt+2] [Carboplatin, carboplatin]
Survival Animals on Day 42 ([1]; 24 mg/Kg i.p. day 1 and day 4): 0/6
Weight Changes ([1]; 24 mg/Kg i.p. day 1 and day 4): +0.6 g
Survival Animals on Day 42 ([1]; 40 mg/Kg i.p. day 1 and day 4): 0/6
Weight Changes ([1]; 40 mg/Kg i.p. day 1 and day 4): -0.4 g
Survival Animals on Day 42 ([1]; 80 mg/Kg i.p. day 1 and day 4): 1/6
Weight Changes ([1]; 80 mg/Kg i.p. day 1 and day 4): -1.2 g
solubility [2]: 16.6 mg/1 mL H2O

cis-[trans-(1R,2R)-diamino cyclohexane] Pt (II) (1-O-D-glucoside-propane-3-chloro-3,3-dicarboxylate) [Example 1]
ILS ([1]; 50 mg/Kg i.p. day 1 and day 4): >425%
Survival Animals on Day 42 ([1]; 50 mg/Kg i.p. day 1 and day 4): 6/6
Weight Changes ([1]; 50 mg/Kg i.p. day 1 and day 4): +1.1 g
ILS ([1]; 100 mg/Kg i.p. day 1 and day 4): >425%
Survival Animals on Day 42 ([1]; 100 mg/Kg i.p. day 1 and day 4): 6/6
Weight Changes ([1]; 100 mg/Kg i.p. day 1 and day 4): +0 g
ILS ([1]; 200 mg/Kg i.p. day 1 and day 4): >425%
Survival Animals on Day 42 ([1]; 200 mg/Kg i.p. day 1 and day 4): 6/6
Weight Changes ([1]; 200 mg/Kg i.p. day 1 and day 4): -0.4 g

N.N.[Cl][Pt][Cl] [Cisplatin, cisplatin]
Survival Animals on Day 42 [1, 3]: 0/6
Weight Changes [1, 3]: +1.1 g
Survival Animals on Day 42 ([1]; 2.5 mg/Kg i.p. day 1 and day 4): 1/6
Weight Changes ([1]; 2.5 mg/Kg i.p. day 1 and day 4): -0.6 g
Survival Animals on Day 42 ([1]; 5.0 mg/Kg i.p. day 1 and day 4): 3/6
Weight Changes ([1]; 5.0 mg/Kg i.p. day 1 and day 4): -2.2 g
